Assay results: ChEMBL document CHEMBL1201862, “PubChem BioAssay data set” (2004)
Counter-ions that a name gives are not always drawn.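 Tested at 5 concentrations; 48 h exposure; 96-well plates; endpoints linearly interpolated, else capped at highest concentration. GI50: concentration for 50% inhibition of growth.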 Calls of active or inactive are those of the source. No stated cut-off is given here; in the data, active = GI50 up to about 1.1 µM and inactive = higher.

What was measured:
Test in all cases: inhibition of tumour cell growth, NCI panel, 48 h
[1] = test system: 786-0
[2] = test system: A498
[3] = test system: BT-549
[4] = test system: CAKI-1
[5] = test system: CCRF-CEM
[6] = test system: COLO 205
[7] = test system: HCC 2998
[8] = test system: HCT-116
[9] = test system: HT-29
[10] = test system: IGROV-1
[11] = test system: LOX IMVI
[12] = test system: NCI/ADR-RES
[13] = test system: SK-MEL-5
[14] = test system: TK-10
[15] = test system: U-251
[16] = test system: EKVX
[17] = test system: MDA-MB-231
[18] = test system: MDA-N
[19] = test system: OVCAR-4
[20] = test system: SR

Measured: GI50

O=C(O)C12C3CCC(O3)C1(C(=O)O)C1CCC2O1 (configuration not stated)
inactive: [1] > 100 µM | [2] > 100 µM | [3] > 100 µM | [4] > 100 µM | [5] > 100 µM | [6] > 100 µM | [7] > 100 µM | [8] > 100 µM | [9] > 100 µM | [10] > 100 µM | [11] > 100 µM | [12] > 100 µM | [13] > 100 µM | [14] > 100 µM | [15] > 100 µM

C1=CC2=CC=CC3c4nc5ccc6ccccc6c5nc4C(=C1)C23 (configuration not stated)
inactive: [1] > 100 µM | [4] > 100 µM | [5] > 100 µM | [6] > 100 µM | [16] > 100 µM | [7] > 100 µM | [8] > 100 µM | [9] > 100 µM | [10] > 100 µM | [11] > 100 µM | [17] > 100 µM | [18] > 100 µM | [12] > 100 µM | [19] > 100 µM | [13] > 100 µM | [20] > 100 µM | [14] > 100 µM | [15] > 100 µM

CCCCCCCCCCCCOCC(COP(=O)(O)OCCN=[N+]=[N-])OC(=O)CCCCCCCCCCC (configuration not stated)
inactive: [1] > 100 µM | [2] > 100 µM | [4] > 100 µM | [6] > 100 µM | [7] > 100 µM | [8] > 100 µM | [9] > 100 µM | [17] > 100 µM | [18] > 100 µM | [12] > 100 µM | [19] 52.2 µM | [13] > 100 µM | [14] > 100 µM | [15] > 100 µM

O=C(O)[C@@H]1CCS(=O)(=O)N1
inactive: [1] > 100 µM | [2] > 100 µM | [4] > 100 µM | [5] > 100 µM | [6] > 100 µM | [16] > 100 µM | [7] > 100 µM | [8] > 100 µM | [9] > 100 µM | [10] > 100 µM | [11] > 100 µM | [17] > 100 µM | [18] > 100 µM | [12] > 100 µM | [19] > 100 µM | [13] > 100 µM | [20] > 100 µM | [14] > 100 µM

N#CC(=C1CCN(CCCC(=O)c2ccc(F)cc2)CC1)c1ccccc1
inactive: [1] > 100 µM | [2] > 100 µM | [3] > 100 µM | [4] > 100 µM | [5] > 100 µM | [6] > 100 µM | [16] > 100 µM | [7] > 100 µM | [8] > 100 µM | [9] 62.2 µM | [10] > 100 µM | [11] > 100 µM | [17] > 100 µM | [12] > 100 µM | [19] > 100 µM | [13] > 100 µM | [20] > 100 µM | [14] > 100 µM | [15] > 100 µM

CC1C[C@]2(C)C(NCCN)=Nc3ccccc3[C@@H]2N(C)c2ccccc21 (some centres not stated)
inactive: [1] 12.2 µM | [2] 16.5 µM | [4] 15.5 µM | [5] 15.9 µM | [6] 2.23 µM | [16] 16.8 µM | [7] 2.9 µM | [8] 8.32 µM | [9] 3.36 µM | [10] 14.1 µM | [11] 12.7 µM | [17] 8.57 µM | [18] 13.9 µM | [12] 26.4 µM | [19] 16.3 µM | [13] 13.7 µM | [20] 2.81 µM | [14] 9.29 µM

COc1ccc(NC(=O)CSc2nc(C)nc3c2sc(=S)n3-c2ccccc2)cc1
inactive: [1] 3.39 µM | [2] 5 µM | [4] 7.46 µM | [5] > 10 µM | [6] 7.28 µM | [16] 7.67 µM | [7] > 10 µM | [8] 8.28 µM | [9] > 10 µM | [10] > 10 µM | [11] > 10 µM | [17] > 10 µM | [18] > 10 µM | [12] 8.51 µM | [19] 3.18 µM | [13] > 10 µM | [20] > 10 µM | [14] > 10 µM | [15] > 10 µM

COc1cc(O)c2c(c1)OCC1(Cc3cc(OC)c(OC)cc31)C2=O (configuration not stated)
inactive: [1] > 100 µM | [2] > 100 µM | [4] 52 µM | [5] > 100 µM | [6] 90.2 µM | [8] 86.1 µM | [9] > 100 µM | [10] > 100 µM | [11] 89.3 µM | [17] 83 µM | [18] 49.9 µM | [12] 88.9 µM | [19] 40 µM | [13] 2.37 µM | [20] 68.7 µM | [14] > 100 µM | [15] > 100 µM

CC(=O)c1ccc(/N=N/c2ccc3nonc3c2N)cc1
inactive: [1] > 100 µM | [4] > 100 µM | [5] > 100 µM | [6] > 100 µM | [16] 9.98 µM | [7] > 100 µM | [8] > 100 µM | [9] > 100 µM | [10] > 100 µM | [11] > 100 µM | [17] > 100 µM | [18] > 100 µM | [12] > 100 µM | [19] > 100 µM | [13] > 100 µM | [20] > 100 µM | [14] 53.1 µM | [15] > 100 µM

CCNc1ncnc2c1nnn2CC
inactive: [1] > 100 µM | [2] > 100 µM | [4] > 100 µM | [5] > 100 µM | [6] > 100 µM | [16] > 100 µM | [7] > 100 µM | [8] > 100 µM | [9] > 100 µM | [10] > 100 µM | [11] > 100 µM | [17] > 100 µM | [18] > 100 µM | [12] > 100 µM | [19] > 100 µM | [13] > 100 µM | [14] > 100 µM | [15] > 100 µM

NCCCCNCCCN [SPERMIDINE TRIHYDROCHLORIDE]
inactive: [1] > 100 µM | [2] > 100 µM | [3] > 100 µM | [4] 1.71 µM | [6] > 100 µM | [16] > 100 µM | [7] > 100 µM | [8] > 100 µM | [9] > 100 µM | [10] > 100 µM | [11] > 100 µM | [17] > 100 µM | [12] > 100 µM | [19] 16.7 µM | [13] > 100 µM | [20] > 100 µM | [14] > 100 µM | [15] > 100 µM
